These results are taken from patent publication US10941435B2, “Methods and compositions for detecting or measuring caspases or apoptosis” (priority 2016, dated 2021).

Assay [1] relates to HeLa cells. The assay is described as follows: Fluorescence microscopy and HCS staurosporine dose-response. The format is cell-based. Conditions: 5 hours; for recognition of apoptotic cells, imaging: 5 μM Compound 1 or 9 or 4 μM CELLEVENT Green 3/7, 10 μM to 0 μM staurosporine, FIG. 9A-9C; for dose-response curve of dye fluorescence to staurosporine: 5 μM dye, 10 μM to 0 μM staurosporine, CX5 HCS, FIG. 9D. As for the experimental part:
The dye/staurosporine stock solution was diluted 1:10 onto HeLa cells in complete media for a final concentration starting at 5 μM Compound 1 or Compound 9, or 4 μM CELLEVENT Green 3/7 and 10 μM staurosporine and ending at 0 μM staurosporine. After a 5 hour incubation at 37° C., live cells were imaged using white light, DAPI and FITC filters. The cells were then fixed and stained with HCS […]™ Deep Red stain (Thermo Fisher Scientific, Waltham, Mass.) and quantified on a […]™ CX5 High Content Screening (HCS) Platform (Thermo Fisher Scientific, Waltham, Mass.).

Assay [2] deals with Jurkat cells. Briefly: Flow cytometry of Jurkat cells treated with 1 μM staurosporine for 1 hour, then Compound 1. It counts as cell-based. Particulars: for positive population, density plots: not shown. On the procedure: In another experiment, Jurkat cells treated with 1 μM Staurosporine for 1 hour (FIG. 5A) or untreated control cells (FIG. 5B) were then treated with Compound 1. Cells were then analyzed on an ATTUNE® NXT flow cytometer. The cells were oriented on a SSC/FSC plot to include both low and high side scatter cells, but to exclude debris and gated to exclude doublets (not shown).

Assay [3] concerns Jurkat cells. The assay is described as follows: Flow cytometric detection of caspase activity and apoptosis, staurosporine dilution series. The format is cell-based. On the procedure: Jurkat cells in log phase were resuspended in complete medium (RPMI-1640, supplemented with 10% Fetal Bovine Serum, 2 mM L-glutamine & 55 U/mL) and adjusted to a concentration of 2×10^6 cells per milliliter. 100 μl of cells were aliquoted in each well of a 96-well, V-bottom microplate so that 8 dilutions in triplicate were tested for each substrate.
Drug dilutions for treating cells were created by adding 1000 μL of complete medium containing 2 μM Staurosporine, 1:2 dilutions of this were added to 500 μL of complete medium, so that a series of 8 dilutions of Staurosporine were created.
100 μL of the media/Staurosporine mixtures were added to each well so that 3 wells of cells contained the highest dose, and then repeated for the next set of 3 wells.
Cells were incubated at 37° C., 5% CO2 in a standard cell culture incubator for 4 hours.
After the 4 hour incubation, each well had 1 μL of caspase substrate added so that the final concentration of the substrate was 2 μM of substrate in 200 μL of media. […]
At the end of the incubation, cells were analyzed using an ATTUNE® NXT Acoustic Focusing Cytometer (Thermo Fisher Scientific, Waltham. Mass.) using the 488 nm excitation and 530/30 nm emission filters to detect CELLEVENT™ Green, or the 405 nm excitation laser and the 440/50 nm emission filters to detect Compound 1. […]

Assay [4] has as its system HeLa cells. Briefly: Fluorescence microscopy detection of caspase activity and apoptosis, nuclear intensity and Z'. It counts as cell-based. Particulars: 1 μM versus 1 nM staurosporine, 18 hour incubation, HCSStudio. On the procedure:
HeLa cells at a density of 7500 cells/well were incubated overnight in growth media (MEM+10% FBS. L-glutamine and Pen-Strep). Half of the plate was treated with 1 μM Staurosporine (FIG. 8B), while the other half was treated with 1 nM Staurosporine (FIG. 8A). After an 18 hour incubation (37° C., 5% CO2), all cells were incubated with SYT®82 (FIGS. 8A and 8B, left panels) and Compound 1 (FIGS. 8A and 8B, center panels). The average intensity of Compound 1 in the cellular nuclear region was calculated using HCSStudio (Compartmental Analysis Bioapplication), and a Z′ was determined (Z′=0.63).

The test system of a further assay is BPAEC cells. Briefly: Dye toxicity experiment, 48 hour incubation, imaging. Conditions: 5 μM dye 48 hours, then 1 μM staurosporine overnight.
Assay [5] has as its system Jurkat cells. Briefly: Flow cytometry of Jurkat cells +/- 0.5 μM staurosporine, with SYTOX Dead Cell Stain. It counts as cell-based. Particulars: Jurkat cells +/- 0.5 μM staurosporine 3.5 hours, 1 μM dye 30 min, FIG. 7A/7B. On the procedure: In yet another experiment, Jurkat cells were resuspended at 1×10^6 cells/ml in RPMI medium+10% FBS and aliquoted into 0.2 ml samples. The cells were treated with 0.5 μM Staurosporine (+STR) or without (−STR) for 3.5 hours at 37° C. […] 1 μl SYTOX™ Dead Cell Stain (Thermo Fisher Scientific, Waltham. Mass.) was added to the cells and incubated for at least 15 min. Cells were analyzed on an ATTUNE™ NXT flow cytometer as described above and were analyzed without washing.

Protocol for BPAEC cells: In another experiment to look at dye toxicity. BPAEC cells were incubated overnight in growth media (DMEM+10% FBS). […] After the 48 hour incubation, DMSO (control) or 1 μM staurosporine (final concentration) was added to a subset of the dye-treated cells and incubated overnight at 37° C.

For the compound `CC(=O)N[C@@H](CC(=O)O)C(=O)N[C@@H](CCC(=O)O)C(=O)N[C@H](C(=O)N[C@@H](CC(=O)O)C(=O)NCCN(C)c1ccc(-c2nc3ccc(-c4nc5ccc(N6CCN(C)CC6)cc5[nH]4)cc3[nH]2)cc1)C(C)C` [Compound 1], the “recognition of apoptotic cells, imaging” value in the assay with HeLa cells [1] was “recognize apoptotic cells”. The “dose-response curve of dye fluorescence to staurosporine” value in the assay with HeLa cells [1] is listed as “good induction of apoptosis”. Moreover, the “Compound 1 positive cells, histograms” value turned out to be 3.49% in the assay on Jurkat cells [2] (Jurkat cells treated with 1 μM staurosporine for 1 hour, FIG. 5A) and 1.30% with Jurkat cells [2] (untreated control Jurkat cells (no staurosporine) stained with Compound 1, FIG. 5B). Moreover, the “positive population, density plots” value with Jurkat cells [2] (Jurkat cells treated with 1 μM staurosporine for 1 hour) is 3.55%; in the assay with Jurkat cells [2] (untreated control Jurkat cells (no staurosporine) stained with Compound 1) it was 1.32%. Moreover, in the assay with Jurkat cells [3] (1 μM staurosporine 4 hours, 2 μM substrate 30 minutes, FIG. 4A/4B), the “positive cells (percent positive of intact single cells)” value stood at 84.9%. Further, the “detection of apoptosis over the entire staurosporine concentration range, CELLEVENT Green 3/7 versus Compound 1” value with Jurkat cells [3] (8 staurosporine dilutions in triplicate, 2 μM substrate, FIG. 3) was “essentially no difference”. Further, in the assay on HeLa cells [4], the “Z' from average intensity of Compound 1 in the cellular nuclear region” value was 0.63. For the same compound, in the assay with BPAEC cells, the “detection of staurosporine-induced apoptotic cells after long incubation with dye” value is reported as “able to detect the staurosporine-induced apoptotic cells”.

Take `CC(=O)N[C@@H](CC(=O)O)C(=O)N[C@@H](CCC(=O)O)C(=O)N[C@H](C(=O)N[C@@H](CC(=O)O)C(=O)NCCCCCN(C)c1ccc(-c2nc3ccc(-c4nc5ccc(N6CCN(C)CC6)cc5[nH]4)cc3[nH]2)cc1)C(C)C` [Compound 9]: in the assay on Jurkat cells [5], the “distinction of non-apoptotic from apoptotic cell populations” value is on record as “distinguished non-apoptotic from apoptotic cell populations”. Also, in the assay with HeLa cells [1], the “recognition of apoptotic cells, imaging” value is listed as “recognize apoptotic cells” and the “dose-response curve of dye fluorescence to staurosporine” value is on record as “good induction of apoptosis”. The “detection of staurosporine-induced apoptotic cells after long incubation with dye” value in the assay with BPAEC cells was “able to detect the staurosporine-induced apoptotic cells”.
